Data published in patent publication US9458165B2, “DOT1L inhibitors” (Dana-Farber Cancer Institute, Inc., priority 2014, dated 2016).

Assay: Pharmacokinetic study, intravenous 5 mg/kg
Format: in vivo
Conditions: CD1 mice, 5 mg/kg, FIG. 8B
Experimental: Pharmacokinetic studies of the compound of Example 1 (i.e. CC-006) and previously disclosed compounds EPZ004777, CC001 (see U.S. 2014/0051654) and FED1 were performed in CD1 mice following intravenous administration, as detailed in Table 1.
Mean plasma concentration-time profiles representative of the compound of Example 1 (i.e. CC-006) after intravenous dosing (5 mg kg^−1) are shown in FIG. 8A (data represent the mean and s.d. (n=3)). […] From the pharmacokinetic properties, the compound of Example 1 (i.e. CC-006) has potential for use in treatment using intravenous administration due to its long half-life, as compared to subcutaneous administration.

## CC(C)N(C[C@H]1C[C@@H](n2ccc3c(N)ncnc32)[C@H](O)[C@@H]1O)[C@H]1C[C@@H](CCc2nc3cc(C(C)(C)C)ccc3[nH]2)C1 [CC001, reference compound]
  half-life (T1/2): longest half-life of the compounds tested
